From the NIST ThermoML archive (doi:10.1016/j.jct.2018.02.019)
± gives the expanded uncertainty stated by the source.

Assay: mn = molality of the nth substance listed, in mol/kg
Settings: 298.15 K, Ring tensiometer

C[C@H](CCC(=O)NCCS(=O)(=O)[O-])[C@H]1CC[C@H]2[C@@H]3[C@H](O)C[C@@H]4C[C@H](O)CC[C@]4(C)[C@H]3C[C@H](O)[C@]12C.[Na+] [sodium taurocholate] + O
Settings	surface tension liquid-gas [mN/m]
m1 = 0.00062	53.39 ± 2.1
m1 = 0.00093	50.95 ± 2.1
m1 = 0.00149	47.64 ± 2.1
m1 = 0.00208	45.58 ± 2.1
m1 = 0.00263	44.18 ± 2.1
m1 = 0.00313	43 ± 2.1
m1 = 0.00354	42.08 ± 2.1
m1 = 0.00392	41.48 ± 2.1
m1 = 0.00455	40.95 ± 2.1
m1 = 0.00489	40.5 ± 2.1
m1 = 0.00556	40.48 ± 2.1
m1 = 0.0062	40.51 ± 2.1
m1 = 0.00714	40.45 ± 2.1
m1 = 0.00804	40.5 ± 2.1
